Laboratory results published in patent publication US6849632B2, “Heteroaryl alkyl piperazine derivatives” (CV Therapeutics, Inc., priority 2000, dated 2005).
Values joined by “and” are separate entries in the source; they are usually repeats but may differ in a detail not shown here. Identical values can stand only once. Like-named read-outs stand apart in the source and are kept apart here.

How the values were obtained:
[1] = Metabolic stability, incubation with human liver S-9 fractions; type: in vitro ADME; conditions: for Liver S9 Stability Factor: % parent remaining after 30 min at 37 C with human liver S9, divided by average % ranolazine remaining (57%)
Protocol: Metabolic Stability: As a measure of metabolic stability the compounds of this invention were incubated with human liver S-9 microsomal fractions. After, 30 minutes at 37 C, the amount of parent drug remaining was determined using LC-mass spec. The response factors for each compound was determined by establishing a standard curve and using an internal standard during the analysis of the samples. An average of five experiments for percentage of ranolazine remaining at the 30 minute time point is 57%. The compounds of this invention were assayed as described in the protocol below and the percentage of parent remaining was divided by the average % of ranolazine remaining (57%) affording a metabolic stability factor. A compound with a stability number greater than 1.2 has a better stability than ranolazine in the liver S-9 assay. A compound with a stability number between 1.2 and 0.8 has an equivalent stability in the liver S-9 assay.
The purpose of this experiment is to compare the percentages remaining for compounds of this invention with the percentage remaining for ranolazine after 30 minutes of incubation with human liver S9 fractions.
The following reagents were used; Potassium phosphate, 0.5M pH 7.4 (incubation buffer), kept at room temperature; 0.05M MgCl^2 kept at 4° C.; β-Nicotinamide adenine dinucleotide phosphate, tetrasodium salt, reduced form (NADPH), 0.02M solution in water (˜16.6 mg/mL) from Sigma Lot #79H7044 prepared on day of use. 1 mM of ranolazine or Compounds 43, 45, 47, 52, 70, 74, 76, 78, and 80 in ACN further diluted to obtain 100 μM in 10% ACN; Human S9 stock: 20 mg/mL from Gentest.
Incubation mixtures were prepared as follows:
Combine all components with incubation buffer and re-pipette 200 μL/tube+25 μL of the compound being tested along with 25 μL of S-9.
After 5 min of pre-incubation at 37° C., at 0 and 30 min after starting the reaction, a 50 μl aliquot of the incubation mixture was removed and added to 100 μL of 9:1 acetonitrile:methanol containing the internal standard.
The mixture was centrifuged and a 100 μL aliquot of the supernatant was diluted in 1 mL of solvent C (0.1% Formic Acid in water). Then samples were analyzed for change between the ratio of compound to internal standard at time zero and 30 minutes by LC/MS (injected 10 μL).
Samples were analyzed for the starting compounds and potential metabolite/s by LC/MS using an internal standard and an ODS-C18 column with a flow rate of 0.25 ml/min.

[2] = system: mitochondrial fatty acid oxidation using palmitoyl CoA as substrate; assay: Palmitoyl CoA oxidation in isolated rat heart mitochondria; type: biochemical; conditions: for Inhibition of mitochondrial fatty acid oxidation using palmitoyl CoA as substrate - % of Control, 100 μm (%): 100 μm compound; for Inhibition of mitochondrial fatty acid oxidation using palmitoyl CoA as substrate - % of Control, 100 μm (%) / Inhibition of mitochondrial fatty acid oxidation using palmitoyl CoA as substrate - % of Control, 50 μm (%): 15 min at 30° C.; for Inhibition of mitochondrial fatty acid oxidation using palmitoyl CoA as substrate - % of Control, 50 μm (%): 50 μm compound
Protocol: Rat heart mitochondria were isolated by the method of Nedergard and Cannon (Methods in Enzymol. 55, 3, 1979). Palmitoyl CoA oxidation—The Palmityl CoA oxidation was carried out in a total volume of 100 micro liters containing the following agents: 110 mM KCl, 33 mM Tris buffer at pH 8, 2 mM KPi, 2 mM MgCl2, 0.1 mM EDTA, 14.7 microM defatted BSA, 0.5 mM malic acid, 13 mM carnitine, 1 mM ADP, 52 micrograms of mitochondrial protein, and 16 microM 1-C14 palmitoyl CoA (Sp. Activity 60 mCi/mmole; 20 microCi/ml, using 5 microliters per assay). The compounds of this invention were added in a DMSO solution at the following concentrations: 100 microM, and 50 microM. In each assay, a DMSO control was used. After 15 min at 30° C., the enzymatic reaction was centrifuged (20,000 g for 1 min), and 70 microliters of the supernatant was added to an activated reverse phase silicic acid column (approximately 0.5 ml of silicic acid). The column was eluted with 2 ml of water, and 0.5 ml of the eluent was used for scintillation counting to determine the amount of C^14 trapped as C^14 bicarbonate ion.

[3] = Table 1, read-out: IC50 (μm), inhibition of mitochondrial fatty acid oxidation using palmitoyl CoA as substrate
[4] = Table IA, read-out: Effect on Palmitoyl CoA Oxidation (IC50)

Molecule	Inhibition of mitochondrial fatty acid oxidation using palmitoyl CoA as substrate - % of Control, 100 μm (%) [2]	IC50 [2, 4]	other results
Cc1cccc(C)c1NC(=O)CN1CCN(CC(O)COc2cnc3ccccc3n2)CC1 (stereo not shown) [Compound 70, N-(2,6-dimethylphenyl)-2-{4-[2-hydroxy-3-(quinoxalin-2-yloxy)-propyl]-piperazin-1-yl}acetamide]			Liver S9 Stability Factor [1]: 0.1
Cc1cccc(C)c1NC(=O)CN1CCN(CC(O)COc2cccc3cnccc23)CC1 (stereo not shown) [Compound 76, N-(2,6-dimethylphenyl)-2-{4-[2-hydroxy-3-(isoquinolin-5-yloxy)-propyl]-piperazin-1-yl}acetamide]	26%		Liver S9 Stability Factor [1]: 0.8
Cc1nc2cc(OCC(O)CN3C(C)CN(CC(=O)Nc4c(C)cccc4C)CC3C)ccc2s1 (stereo not drawn) [Compound 52, N-(2,6-dimethylphenyl)-2-{4-[2-hydroxy-3-(2-methyl-benzothiazol-5-yloxy)-propyl]-3,5-cis dimethyl-piperazine-1-yl}acetamide]	95%	0.7 µM	IC50 [2, 3]: ~1 µM; Liver S9 Stability Factor [1]: 0.5
COc1ccccc1OCC(O)CN1CCN(CC(=O)Nc2c(C)cccc2C)CC1 (racemic) [ranolazine, (±)-N-(2,6-dimethylphenyl)-4-[2-hydroxy-3-(2-methoxyphenoxy)-propyl]-1-piperazineacetamide, reference compound]			percentage of parent drug remaining at the 30 minute time point ([1]; human liver S-9, 30 minutes at 37 C, average of five experiments): 57%
Cc1nc2cc(OCC(O)CN3CCN(CC(=O)Nc4c(C)cccc4C)C(=O)C3)ccc2s1 (stereo not shown) [Compound 64, N-(2,6-dimethylphenyl)-2-{4-[2-hydroxy-3-(2-methyl-benzothiazol-5-yloxy)-propyl]-2-oxo-piperazin-1-yl}acetamide]	41%		
2-{4-[(2S)-2-hydroxy-3-(2-methylbenzothiazol-5-yloxy)propyl]piperazinyl}-N-(3-phenoxyphenyl)acetamide		0.39 µM	
Cc1cccc(C)c1NC(=O)CN1CCN(CC(O)COc2ccnc3ccccc23)CC1 (stereo not shown) [Compound 74, N-(2,6-dimethylphenyl)-2-{4-[2-hydroxy-3-(quinolin-4-yloxy)-propyl]-piperazin-1-yl}acetamide]	12%		Liver S9 Stability Factor [1]: 1.0
Cc1nc2cc(OCC(O)CN3CCN(CC(=O)Nc4c(C)cccc4C)CC3)ccc2s1 (stereo not shown) [Compound 45, N-(2,6-dimethylphenyl)-2-{4-[2-hydroxy-3-(2-methyl-benzothiazol-5-yloxy)-propyl]-piperazin-1-yl}acetamide]	87%	15 µM	IC50 [2, 3]: ~20 µM; Liver S9 Stability Factor [1]: 0.8
Cc1nc2cc(OC[C@H](O)CN3CCN(CC(=O)Nc4c(C)cccc4C)CC3)ccc2s1 [2-{4-[(2R)-2-hydroxy-3-(2-methylbenzothiazol-5-yloxy)propyl]piperazinyl}-N-(2,6-dimethylphenyl)acetamide]		4 µM	
2-(4-{(2S)-3-[2-(4-chlorophenyl)benzoxazol-5-yloxy]-2-hydroxypropyl}piperazinyl)-N-[2-(hydroxymethyl)-6-methylphenyl]acetamide		12 µM and 20 µM	
Cc1nc2cc(OC[C@@H](O)CN3CCN(CC(=O)Nc4c(C)cccc4C)CC3)ccc2s1 [2-{4-[(2S)-2-hydroxy-3-(2-methylbenzothiazol-5-yloxy)propyl]piperazinyl}-N-(2,6-dimethylphenyl)acetamide]		8 µM	
2-((3S)-4-{(2S)-3-[2-(2-chlorophenyl)benzoxazol-5-yloxy]-2-hydroxy-propyl}-3-methylpiperazinyl)-N-(2,6-dimethylphenyl)acetamide		19 µM	
2-{4-[(2S)-3-(2-cyclohexylbenzothiazol-5-yloxy)-2-hydroxypropyl]piperazinyl}-N-(2,6-dimethylphenyl)acetamide		6.5 µM	
Cc1cccc(C)c1NC(=O)CN1CCN(CC(O)COc2ccc3oc(-c4ccc(C(F)(F)F)cc4)nc3c2)CC1 (stereo not shown) [Compound 68, N-(2,6-dimethylphenyl)-2-(4-{2-hydroxy-3-[2-(4-trifluoromethyl-phenyl)benzoxazol-5-yloxy]-propyl}-piperazin-1-yl)acetamide]			Inhibition of mitochondrial fatty acid oxidation using palmitoyl CoA as substrate - % of Control, 50 μm (%) [2]: 68%
Cc1cccc(C)c1NC(=O)CN1CCN(CC(O)COc2cccc3nc(-c4ccccc4)sc23)CC1 (stereo not shown) [Compound 62]			Inhibition of mitochondrial fatty acid oxidation using palmitoyl CoA as substrate - % of Control, 50 μm (%) [2]: 62%
Cc1nc2cc(OC[C@H](O)CN3CCN(CC(=O)Nc4c(C)cccc4C)C[C@@H]3C)ccc2s1 [2-{4-[(2R)-2-hydroxy-3-(2-methylbenzothiazol-5-yloxy)propyl](3S)-3-methylpiperazinyl}-N-(2,6-dimethylphenyl)acetamide]		5 µM	
2-{4-[(2S)-2-hydroxy-3-(2-methylbenzothiazol-5-yloxy)propyl]piperazinyl}-N-(4-methylphenyl)acetamide		1.7 µM	
Cc1cccc(C)c1NC(=O)CN1CCN(CC(O)COc2cccc3[nH]c(C(N)=O)cc23)CC1 (stereo not shown) [Compound 46, 4-(3-{4-[(2,6-dimethylphenylcarbamoyl)-methyl]-piperazin-1-yl}-2-hydroxypropoxy)-1H-indole-2-carboxylic acid amide]	61%		IC50 [2, 3]: ~125 µM; Liver S9 Stability Factor [1]: 1.1
Cc1cccc(C)c1NC(=O)CN1CCN(CC(O)COc2ccc3ncccc3c2)CC1 (stereo not shown) [Compound 78, N-(2,6-dimethylphenyl)-2-{4-[2-hydroxy-3-(quinolin-6-yloxy)-propyl]-piperazin-1-yl}acetamide]	42%		Liver S9 Stability Factor [1]: 0.6
Cc1cccc(C)c1NC(=O)CN1CCN(CC(O)COc2cccnc2)CC1 (stereo not shown) [Compound 72, N-(2,6-dimethylphenyl)-2-{4-[2-hydroxy-3-(pyridin-3-yloxy)-propyl]-piperazin-1-yl}acetamide]	8%		
2-{4-[(2R)-2-hydroxy-3-(2-methylbenzothiazol-5-yloxy)propyl]-3,3-dimethylpiperazinyl}-N-(2,6-dimethylphenyl)acetamide		0.45 µM	
Cc1nc2cc(OC[C@@H](O)CN3CCN(CC(=O)Nc4cccc(-c5ccccc5)c4)CC3)ccc2s1 [2-{4-[(2S)-2-hydroxy-3-(2-methylbenzothiazol-5-yloxy)propyl]piperazinyl}-N-(3-phenylphenyl)acetamide]		0.18 µM	
2-((3S)-4-{(2S)-3-[2-(3-fluorophenyl)benzoxazol-5-yloxy]-2-hydroxy-propyl}-3-methylpiperazinyl)-N-(2,6-dimethylphenyl)acetamide		16 µM	
Cc1nc2cc(OC[C@H](O)CN3CCN(CC(=O)Nc4c(C)cccc4C)C[C@H]3C)ccc2s1 [2-{(3R)-4-[(2R)-2-hydroxy-3-(2-methylbenzothiazol-5-yloxy)propyl]-3-methylpiperazinyl}-N-(2,6-dimethylphenyl)acetamide]		10 µM	
2-{4-[(2S)-2-hydroxy-3-(2-methylbenzothiazol-5-yloxy)propyl]piperazinyl}-N-[4-(trifluoromethyl)phenyl]acetamide		7.6 µM	
Cc1cccc(C)c1NC(=O)CN1CCN(CC(O)COc2ccc3oc(-c4ccccc4)nc3c2)CC1 (stereo not shown) [Compound 60, N-(2,6-dimethylphenyl)-2-{4-[2-hydroxy-3-(2-phenyl-benzoxazol-5-yloxy)-propyl)-piperazin-1-yl}acetamide]			Inhibition of mitochondrial fatty acid oxidation using palmitoyl CoA as substrate - % of Control, 50 μm (%) [2]: 61%
